Like-named read-outs stand apart in the source and are kept apart here.
Experiments:
[1] = tested on: acute galactosamine-induced liver damage; settings: Stachur et al; cited from earlier work
[2] = tested on: carbon tetrachloride-induced liver cell necrosis; settings: Stachur et al; cited from earlier work
[3] = tested on: isolate perfused cat liver; settings: Araki et al; cited from earlier work
endotoxin shock = settings: dog; Fletcher et al; cited from earlier work
[4] = tested on: endotoxin-induced lung injury; settings: sheep; Demling et al; cited from earlier work
artery = settings: cited from earlier work
[5] = tested on: arachidonic acid-induced blood platelet aggregation; settings: human; cited from earlier work
[6] = tested on: diet-induced acute pancreatitis; settings: mice; Manabe et al; cited from earlier work
[7] = tested on: carbon tetrachloride (CCl4) induced liver damage; assay: Effect on carbon tetrachloride (CCl4) induced liver damage (liver cell necrosis type); assay type: in vivo, Male Wistar rats; settings: for inhibition in vivo at 0.02 mg/kg: Rattus norvegicus, sc, 24 h, s.c., 20 μg/kg
Method: Effect on carbon tetrachloride (CCl4) induced liver damage (liver cell necrosis type)
Male Wistar rats weighing 180-220 g were used. Rats were dosed intraperitoneally with CCl4 dissolved in olive oil (5%, w/v) at a volume of 500 μl/kg after 18 hr starvation. The compound under test was administered orally (p.o.) or subcutaneously (s.c.) 6 and 12 hr after CCl4 injection in rats and blood was collected after 24 hr. Plasma glutamic oxaloacetic transaminase (GOT) and glutamic pyruvic transaminase (GPT) activities were determined by ultraviolet absorbance methods (optimised method based on the recommendations of the Deutsche Gesellschaft fur Klinische Chemie). The effects of the compounds tested were assessed by the inhibition rate in comparison with controls. Inhibition rate was calculated by the following formula. [formula] The results obtained are shown in the following Tables 1A and 1B for compounds of the general formula: [drawing 10] wherein R, R^1 and --X--Y--Z-- have the meanings indicated.
In Tables 1A, 1B and 2 to 5 hereinafter the dose shown in the amount given at each administration of the compound under test.

[8] = tested on: alcohol-induced acute liver damage; assay: Effect on alcohol-induced acute liver damage; assay type: in vivo, Male Wistar rats; settings: p.o., 50 μg/kg; blood after 24 hr
Method: Effect on alcohol-induced acute liver damage
Male Wistar rats weighing 180-220 g were used. After the rats had fasted for 18 hr, 50% v/v ethanol solution was given orally to them at a volume of 12 ml/kg. The compound under test was administered orally 30 min before and 2 and 8 hr after administration of ethanol and blood was collected after 24 hr. Plasma GOT and GPT activities were determined in the manner described in Experiment 1. Effects were shown by the inhibition rate compared with controls (calculation by the formula shown in Experiment 1).

[9] = tested on: D(+)-galactosamine hydrochloride-induced liver damage; assay: Effect on D(+)-galactosamine hydrochloride-induced liver damage (hepatitis type); assay type: in vivo, Male Wistar rats; settings: p.o., 100 μg/kg
Method: Effect on D(+)-galactosamine hydrochloride-induced liver damage (hepatitis type)
Male Wistar rats weighing 180-220 g were used. After the rats had fasted for 18 hr, 250 mg/kg galactosamine hydrochloride was administered to them intraperitoneally three times at 4 hr intervals. The compound under test was administered orally 6, 12, 18, 24, 30, 36, 42 and 48 hr after the dose of D(+)-galactosamine hydrochloride and blood was collected after 36, 48 and 54 hr. Plasma GOT and GPT activities were determined in the manner described in Experiment 1 and the effects were shown by the inhibition rate compared with controls (calculation by the formula shown in Experiment 1).

[10] = tested on: p-acetoamidophenol-induced liver damage; assay: Effect on p-acetoamidophenol-induced liver damage (liver glutathione decrease type); assay type: in vivo, Male Wistar rats; settings: p.o., 50 μg/kg; blood after 24 hr
Method: Effect on p-acetoamidophenol-induced liver damage (liver glutathione decrease type)
Male Wistar rats weighing 180-220 g were used. After the rats had fasted for 18 hr, p-acetoamidophenol (2.5 g/kg) was given orally to them. The compound under test was administered orally 30 min before and 6 and 12 hr after administration of p-acetoamidophenol and blood was collected after 24 hr. Plasma GOT and GPT activities were determined in the manner described in experiment 1 and the results given in Table 4 show the inhibition rate compared with controls (calculation by the formula shown in Experiment 1)

[11] = tested on: α-naphthylisothiocyanate-induced liver damage; assay: Effect on α-naphthylisothiocyanate-induced liver damage (cholangioatresia type); assay type: in vivo, Male Wistar rats; settings: p.o., blood after 24 hr
Method: Effect on α-naphthylisothiocyanate-induced liver damage (cholangioatresia type)
Male Wistar rats weighing 190-220 g were used. After rats had fasted for 18 hr, α-naphthylisothiocyanate (ANIT) dissolved in olive oil (1.5% w/v) was given orally to them at 30 mg/kg body weight. The compound under test was administered orally 30 min before and 6 and 12 hr after administration of ANIT and blood was collected after 24 hr. Plasma GOT, GPT and bilirubin activities were determined and the results given in Table 5 show the inhibition rate compared with controls (calculation by the formula shown in Experiment 1).

[12] = tested on: ethionine-induced acute pancreatitis; assay: Effect on ethionine-induced acute pancreatitis; assay type: in vivo, Male TCL-ICR mice; settings: s.c., 5 μg/kg
Method: Effect on ethionine-induced acute pancreatitis
Male TCL-ICR mice from 4 weeks of age were used. After normal feeding the mice were given a choline-deficient diet (CD diet) for 2 days. Further after having fasted for 24 hr, they were given a choline-deficient diet containing 5% DL-ethionine (CDE diet) for 2 days, counted as days 1 and 2. The mice were then given the CD diet for 1 day and thereafter fed normally. Compound number 6 was administered subcutaneously to them at 5 μg/kg, twice daily, during the CDE diet on days 1 and 2, and then administered in the same manner once daily on days 3, 4 and 5. The effect of the compound under test on the survival rate at day 9 was determined. Further details of the test method appear in Gastroenterology, 78, 777 (1980).

Acute toxicity test = settings: mouse, in vivo; oral, mice observed for 14 days
Method: Male JCL-ICR mice (non SPF mice) from 7 weeks of age were used. The compound under test was dissolved in 5% v/v ethanol containing 0.4% w/v Tween 80 (Tween is a registered trademark) and administered orally to the mice. […] The deaths observed were all within 72 hrs after treatment.

[13] = tested on: blood platelet aggregation; settings: cited from earlier work
thrombus = settings: cited from earlier work

CCCCC(C)(C)[C@H](O)/C=C/[C@H]1[C@H](O)CC(=O)[C@@H]1C/C=C\CCCC(=O)O [16,16-dimethyl-PGE2]
effect on acute galactosamine-induced liver damage [1]: prevents | effect on carbon tetrachloride-induced liver cell necrosis [2]: prevents

CCCCC[C@H](O)/C=C/[C@@H]1[C@H]2C/C(=C/CCCC(=O)O)O[C@H]2C[C@H]1O [PGI2, (5Z,13E)-(9α,11α,15S)-6,9-epoxy-11, 15-dihydroxyprosta-5,13-dienoic acid]
effect on hypoxia in the isolate perfused liver [3]: prevents and is useful in treating | effect on endotoxin shock (endotoxin shock): prevents and is useful in treating | effect on endotoxin-induced lung injury [4]: prevents and is useful in treating | activity on the artery (artery): relaxing activity | effect on arachidonic acid-induced blood platelet aggregation [5]: strongly inhibits

CCCCC[C@H](O)/C=C/[C@H]1[C@H](O)CC(=O)[C@@H]1C/C=C\CCCC(=O)O [PGE2]
effect against diet-induced acute pancreatitis [6]: effective

CCCC1CCC([C@H](O)/C=C/[C@H]2[C@H](O)CC(=O)[C@@H]2CC(=O)CCCCC(=O)OC)C1 (single isomer, unassigned) [Compound 6, 15-(3-Propylcyclopentyl)-16,17,18,19,20-pentanor-6-oxo-PGE1 methyl ester]
inhibition in vivo at 0.02 mg/kg ([7]; plasma GOT after 24 hr, read-out: inhibition rate GOT): 54.1% | inhibition in vivo at 0.02 mg/kg ([7]; plasma GPT after 24 hr, read-out: inhibition rate GPT): 43.2% | inhibition rate GOT ([7]; p.o., 100 μg/kg, plasma GOT after 24 hr): 71.3% | inhibition rate GPT ([7]; p.o., 100 μg/kg, plasma GPT after 24 hr): 67.5% | inhibition rate GOT [8]: 24.5% | inhibition rate GPT [8]: 35.8% | inhibition rates GOT 36 hr after ([9]; 36 hr): 37.2% | inhibition rates GPT 36 hr after ([9]; 36 hr): 29.4% | inhibition rates GOT 48 hr after ([9]; 48 hr): 46.3% | inhibition rates GPT 48 hr after ([9]; 48 hr): 38.2% | inhibition rates GOT 54 hr after ([9]; 54 hr): 39.1% | inhibition rates GPT 54 hr after ([9]; 54 hr): 39.1% | inhibition GOT [10]: 33.2% | inhibition GPT [10]: 60.4% | inhibition GOT ([11]; 20 μg/kg): 14.6% | inhibition GPT ([11]; 20 μg/kg): 5.4% | inhibition bilirubin ([11]; 20 μg/kg): 18.2% | inhibition GOT ([11]; 50 μg/kg): 44.6% | inhibition GPT ([11]; 50 μg/kg): 49.8% | inhibition bilirubin ([11]; 50 μg/kg): 24.9% | inhibition GOT ([11]; 100 μg/kg): 67.8% | inhibition GPT ([11]; 100 μg/kg): 63.6% | inhibition bilirubin ([11]; 100 μg/kg): 50.5% | protection against death at day 9 from CDE diet [12]: significant protection against death | treated mice dead at day 9 ([12]; twice daily days 1-2, once daily days 3-5, untreated control 12 of 16 dead): 3 of 16 | LD50 at 336 h (Acute toxicity test): 10 to 20 mg/kg

CCCCC[C@H](O)/C=C/[C@H]1[C@H](O)CC(=O)[C@@H]1CCCCCCC(=O)O [PGE1, Prostaglandin E1]
effect on blood platelet aggregation [13]: inhibits | effect on thrombus (thrombus): removes the thrombus and prevents thrombosis

— patent US4464388A, “Use of prostaglandin analogues to treat cytodamage” (priority 1982, dated 1984)
